Source: US4060652A (priority 1976, dated 1977)
Read-outs that look alike come from different tables or passages of the source.

Columns and labels:
[1] = tested on: nervomuscular conduction, anterior tibial muscle; experiment: Nervomuscular block in cats, indirect stimulation of anterior tibial muscle; assay type: in vivo
Protocol: The preparation was studied in acute experiments on cats, rabbits, mice and pigeons, in experiments on phrenico-diaphragm preparations of rats, and also on the straight muscle of a frog abdomen. The properties of Tercuronium were compared with those of α-tubocurarin and pancuronium.
(§1) Cats were narcotized (with chloralose, 50 mg per kg body weight, and urethane, 500 mg/kg, intraperitoneally) or decerebrated at the quadrigeminal bodies level. The lungs were ventilated artificially whenever necessary. Contractions of the anterior tibial muscle were recorded in isotonic concitions in response to electric stimulation of the peripheral part of n. peroneus with supramaximum pulses of 0.1 msec at a frequency of 0.1-100 Hz.

[2] = tested on: nervomuscular conduction, anterior tibial muscle; experiment: Neostigmin antagonism of nervomuscular block in cats; assay type: in vivo
Protocol: as §1
For example, even with a 5-fold dose of tercuronium, muscle contractility was restored already in 2 to 5 minutes following a single injection of neostigmin in a dose of 0.1 mg/kg, and in 15-20 minutes the recovery of the contactile function was complete.
In the case of pancuronium and α-tubocurarin, the restoration within these short periods of time could only be attained with 2-3 fold doses of these muscle relaxants. If the dose of pancuronium was increased 4 to 5 times, weak contractions of the muscle were observed not sooner than in 9 to 10 minutes and the contraction was, restored completely only 30 minutes after the injection of neostigmin (six experiments). The restoration of muscle contractility is delayed even longer in the case of α-tubocurarin.

rabbits = experiment: Head-drop test in non-narcotized rabbits; assay type: in vivo
Protocol: In experiments (a total of twenty) on non-narcotized rabbits, the head-drop dose (HDD) was 0.022 ± 0.009 micromole/kg A complete blocking effect developed 1.5 to 2 minutes after administration of Tercuronium and persisted for 3 to 5 minutes. A few minutes later, the animal behaviour normalized. The same effect was attained with 0.18 ± 0.02 micromole/kg of α-tubocurarin (6 experiments) and 0.018 ± 0.001 mcM/kg of pancuronium (6 experiments). The time of onset and the duration of the blocking effect with all the three preparations were the same.

[3] = Lethality by paralysis of respiratory muscles in rabbits; conditions: rabbit, in vivo
Text: In another series of experiments, we determined the intravenous dose of the muscle relaxants that caused death of 50% of the animals due to paralysis of the respiratory muscles -- lethal dose 50% (LD50).

albino mice = experiment: Inhibition of turning from the lateral position in mice; assay type: in vivo; conditions: Mus musculus, iv; mice, turning from the lateral position; read-out: ED50
Text: (§2) In experiments on albino mice, the dose of Tercuronium injected into the tail vein, that inhibited the symptom of turning from the lateral position in 50 percent of mice (ED50) was 0.06 mcM/kg (18 experiments); and 50 percent of mice perished from paralysis of the respiratory muscles (LD50) following an injection of 0.09 mcM/kg of Tercuronium.

[4] = Lethality by paralysis of respiratory muscles in mice; conditions: mouse, in vivo, iv
Text: as §2

respiration = experiment: Inhibition of respiration in narcotized and decerebrated cats (and rabbits); assay type: in vivo
Text: This developed simultaneously with the block of the nervomuscular conduction in the anterior tibial muscle. […] The same result was obtained in experiments on rabbits. The ratio of LD50 in experiments on rabbits and mice, as specified above, also provides data on the that Tercuronium produces on respiration.

arterial pressure = experiment: Effect on arterial pressure in cats and rabbits; assay type: in vivo
Protocol: Experiments were carried out on narcotized cats and rabbits (50 mg/kg of chloralose and 500 mg/kg urethane, intraperitoneally) and also on cats decerebrated at the quadrigeminal level. The blood pressure in the carotid artery was recorded with a mercury pressure gauge. The preparations were injected intravenously.
When Tercuronium was given in a quantity ten times exceeding the myoparalytic dose (0.8 mcM/kg) an insignificant and transient reduction (10 to 20 mm Hg) of the blood pressure was observed. The animals (7 cats and 5 rabbits) tolerated injections of very large doses of Tercuronium, viz., 10-20 mcM/kg, which is 200 times higher than the myoparalytic dose. […] In all experiments, in 1 to 2 hours, the arterial pressure restored completely or was close to the initial level.

[5] = Effect on sympathetic ganglia, third eyelid contraction in cats; assay type: in vivo; conditions: cat, in vivo, iv, read-out: ganglioblocking dose as multiple of myoparalytic dose
Protocol: Experiments were carried out on narcotized cats. A peripheral part of the sympathetic column on the neck was stimulated with electric pulses at 5 Hz. The duration of the stimulus was 1 msec, the amplitude 5 V. The contractions of the third eyelid (nictiating membrane) and the arterial (carotid) pressure were recorded with a mercury pressure gauge. We determined the intravenous dose of Tercuronium, α-tubocurarin and pancuronium that decreased the height of contraction of the third eyelid by 50 to 60 percent in conditions of prolonged stimulation of the sympathetic column.

[6] = tested on: nervomuscular conduction, vegetative ganglia, circulation; experiment: Overall conclusions from animal experiments; assay type: in vivo, animals
Text: The results of the pharmacological studies of the proposed muscle relaxant Tercuronium, as compared with the known muscle relaxants, enable us to make the following conclusions.

[7] = tested on: nervomuscular conduction, ganglia, circulation; conditions: cited from earlier work

In the case of `CC(=O)O[C@H]1C[C@@H]2CC[C@@H]3[C@H](CC[C@@]4(C)[C@H]3C[C@H]([N+]3(C)CCCCC3)[C@@H]4OC(C)=O)[C@@]2(C)C[C@@H]1[N+]1(C)CCCCC1` [pancuronium, reference compound], the “mean duration of effect” value [1] is reported as “nine”, the ED (95-100) ([1]; Felis catus, intravenous, 0.1 Hz, read-out: dose blocking nervomuscular conduction (95-100 percent)) is reported as 0.04 ± 0.001 µmol/kg and the “multiple of dose at which restoration within the short periods could be attained” value ([2]; cats, neostigmin) is reported as 2-3 fold. The “time to complete restoration of contraction after neostigmin” value ([2]; dose increased 4 to 5 times, six experiments) was 30 min, the “number of myoparalytic doses whose blocking effect is completely removed by neostigmin” value ([2]; neostigmin 0.1 mg/kg intravenous, within five minutes) was “three” and the ED (head drop) (rabbits; Oryctolagus cuniculus, non-narcotized rabbits, read-out: head-drop dose (HDD)) was 0.018 ± 0.001 µmol/kg. For the same molecule, the “time of onset and duration of blocking effect, comparison” value (rabbits; all three preparations) was “the same”, the LD50 ([3]; intravenous) was 0.026 µmol/kg and the selectivity ratio ([3]; read-out: LD50 to HDD ratio) was 1.4. It also gave an ED50 (albino mice) of 0.042 µmol/kg, an LD50 [4] of 0.062 µmol/kg and a selectivity ratio ([4]; read-out: width of the muscle relaxing action (LD50/ED50)) of 1.5. For the same molecule, the “inhibition of respiration by blocking doses, comparison” value (respiration; from LD50 to ED50 ratio) was “equally inhibit respiration”, the effect on respiration (respiration; narcotized and decerebrated cats) was “The same effect was observed” and the “effect on arterial pressure of 20-fold dose” value (arterial pressure; 20-fold dose) was “moderately depressive”. The “arterial pressure on doses that inhibit respiration” value (arterial pressure; active ventilation of the lungs) was “asphyxial rise in the arterial pressure”, the “effect on arterial pressure of myoparalytic (complete block) dose” value (arterial pressure; artificial ventilation) was “the arterial pressure did not drop either” and the selectivity ratio [5] was 30. The “arterial pressure and pulse rate” value ([6]; in vivo) was “stable rise in the arterial pressure, which results in increased hemorrhage in surgical operations and in accelerated pulse rate”, the “histamine, vegetative ganglia, blood pressure and heart frequency” value ([6]; myoparalytic dose) was “do not produce histamine or block vegetative ganglia” and the “conditions for tracheal intubation” value ([7]; 0.15 mg/kg) was “favourable conditions for tracheal intubation are provided”. For the same molecule, the “duration of myoparalytic action” value ([7]; background) was “lasts for the same period of time as that of α-tubocurarin”, the “fold less active than α-tubocurarin in blocking conduction in sympathetic ganglia” value ([7]; background) was 2.5 times and the “histamine release, ganglia and circulatory effects” value (“histamine release” for short) ([7]; background) was “often accelerates the pulse rate and increases arterial pressure”. The “removal of myoparalytic action by proserpin” value ([7]; background) was “can be removed with proserpin, and cases with difficult decurarization occur less frequently than with α-tubocurarin” and the “histamine release” value ([7]; background, listed as Pancuronium) was “does not induce production of histamine from tissues, nor does it lower arterial pressure”.
For `C[N+](C)(C)CCOC(=O)CCC(=O)OCC[N+](C)(C)C` [succinylcholine, dicholine ester of succinic acid], the “duration of action in patients with hepatic dysfunction and low cholinesterase” value ([7]; common dose) is listed as “can last for a period of a few hours”.
In the case of `CC[N+](CC)(CC)CCOc1cccc(OCC[N+](CC)(CC)CC)c1OCC[N+](CC)(CC)CC` [pyrolaxon], the “histamine release” value ([7]; background) is listed as “blocks parasympathetic ganglia and produces tachycardia”.
